# Values joined by “and” are separate entries in the source; they are usually repeats but may differ in a detail not shown here. Equal entries are not always repeated.
# Test system: DOHH2 cells
# Assay: RT2 Glucocorticoid signaling PCR array, DOHH2 cell line (Table 4b)
# Format: cell-based
# Details: DOHH2, 4 days
smiles,measurement,setting,value
CCN(c1cc(-c2ccc(CN3CCOCC3)cc2)cc(C(=O)NCc2c(C)cc(C)[nH]c2=O)c1C)C1CCOCC1 [Compound 44],ACTB Ct Values,,14.519
same,ADARB1 Ct Values,,31.431
same,AFF1 Ct Values,,23.888
same,AK2 Ct Values,,20.173
same,AMPD3 Ct Values,,26.146
same,ANGPTL4 Ct Values,,30.820
same,ANXA4 Ct Values,,24.273
same,ARID68 Ct Values,,23.782
same,ASPH Ct Values,,22.823
same,ATF4 Ct Values,,19.190
same,B2M Ct Values,,18.576
same,BCL6 Ct Values,,21.323
same,BMPER Ct Values,,39.092
same,CALCR Ct Values,,33.360
same,CEBPA Ct Values,,30.676
same,CEBPB Ct Values,,23.925
same,COL4A2 Ct Values,,34.119
same,CREB1 Ct Values,,22.746
same,CREB3 Ct Values,,24.840
same,CREB3L4 Ct Values,,24.110
same,CTGF Ct Values,,32.760
same,CYB561 Ct Values,,31.945
same,DDIT4 Ct Values,,23.508
same,DUSP1 Ct Values,,27.132
same,EDN1 Ct Values,,32.260
same,EHD3 Ct Values,,28.852
same,ERRFI1 Ct Values,,30.163
same,FK8PS Ct Values,,21.520
same,FOSL2 Ct Values,,29.872
same,GAPDH Ct Values,,16.197
same,GDPD1 Ct Values,,27.570
same,GHRHR Ct Values,,39.644
same,GLUL Ct Values,,36.671
same,GOT1 Ct Values,,23.126
same,H6PD Ct Values,,24.377
same,HNRPLL Ct Values,,29.151
same,HPRT1 Ct Values,,21.561
same,IL1RN Ct Values,,32.271
same,IL6R Ct Values,,31.962
same,KLF9 Ct Values,,28.439
same,KLF13 Ct Values,,22.420
same,LOX Ct Values,,32.997
same,MERTK Ct Values,,32.456
same,NFKBIA Ct Values,,22.625
same,NR3C1 Ct Values,,22.430
same,PDCD7 Ct Values,,23.417
same,PDGFRB Ct Values,,35.193
same,PDP1 Ct Values,,25.175
same,PER1 Ct Values,,24.717
same,PER2 Ct Values,,23.835
same,PIK3R1 Ct Values,,23.712
same,PLEKHF1 Ct Values,,28.946
same,POU2F1 Ct Values,,24.003
same,POU2F2 Ct Values,,22.167
same,RASA3 Ct Values,,27.636
same,RGS2 Ct Values,,24.861
same,RHOB Ct Values,,30.745
same,RPLP0 Ct Values,,14.935
same,SESN1 Ct Values,,23.848
same,SGK1 Ct Values,,27.821
same,SLC10A6 Ct Values,,36.435
same,SLC19A2 Ct Values,,24.859
same,SLC22A5 Ct Values,,27.992
same,SNTA1 Ct Values,,24.550
same,SPHK1 Ct Values,,28.863
same,SPSB1 Ct Values,,26.652
same,STAT5A Ct Values,,23.771
same,STAT5B Ct Values,,22.328
same,TBL1XR1 Ct Values,,20.994
same,TNF Ct Values,,31.849
same,TNFAIP3 Ct Values,,27.520
same,TSC22D3 Ct Values,,24.752
same,USP2 Ct Values,,23.684
same,USPS4 Ct Values,,25.892
same,VDR Ct Values,,26.426
same,VLDLR Ct Values,,27.232
same,ZFP36 Ct Values,,23.980
same,ZHX3 Ct Values,,24.611
same,ZNF281 Ct Values,,23.541
same,PPC Ct Values,"array control, three lines",18.672 and 19.142 and 18.711
same,RTC Ct Values,"array control, three lines",21.345 and 21.410 and 21.384
same,ACTB ΔCT (B2M),normalized to B2M,−4.057
same,ADARB1 ΔCT (B2M),normalized to B2M,12.855
same,AFF1 ΔCT (B2M),normalized to B2M,5.312
same,AK2 ΔCT (B2M),normalized to B2M,1.597
same,AMPD3 ΔCT (B2M),normalized to B2M,7.570
same,ANGPTL4 ΔCT (B2M),normalized to B2M,12.244
same,ANXA4 ΔCT (B2M),normalized to B2M,5.697
same,ASPH ΔCT (B2M),normalized to B2M,4.247
same,ATF4 ΔCT (B2M),normalized to B2M,0.614
same,B2M ΔCT (B2M),normalized to B2M,0.000
same,BCL6 ΔCT (B2M),normalized to B2M,2.747
same,BMPER ΔCT (B2M),normalized to B2M,20.516
same,CALCR ΔCT (B2M),normalized to B2M,15.054
same,CEBPA ΔCT (B2M),normalized to B2M,12.100
same,CEBPB ΔCT (B2M),normalized to B2M,5.349
same,COL4A2 ΔCT (B2M),normalized to B2M,15.543
same,CREB1 ΔCT (B2M),normalized to B2M,4.170
same,CREB3L4 ΔCT (B2M),normalized to B2M,5.534
same,CREB3 ΔCT (B2M),normalized to B2M,6.264
same,CTGF ΔCT (B2M),normalized to B2M,14.184
same,CYB561 ΔCT (B2M),normalized to B2M,13.369
same,DDIT4 ΔCT (B2M),normalized to B2M,4.932
same,DUSP1 ΔCT (B2M),normalized to B2M,8.556
same,EDN1 ΔCT (B2M),normalized to B2M,13.684
same,EHD3 ΔCT (B2M),normalized to B2M,10.276
same,ERRFI1 ΔCT (B2M),normalized to B2M,11.587
same,FK8PS ΔCT (B2M),normalized to B2M,2.944
same,FOSL2 ΔCT (B2M),normalized to B2M,11.296
same,GAPDH ΔCT (B2M),normalized to B2M,−2.379
same,GDPD1 ΔCT (B2M),normalized to B2M,8.994
same,GHRHR ΔCT (B2M),normalized to B2M,21.068
same,GLUL ΔCT (B2M),normalized to B2M,18.095
same,GOT1 ΔCT (B2M),normalized to B2M,4.550
same,H6PD ΔCT (B2M),normalized to B2M,5.801

# — patent US10456407B2, “Combination therapy for treating cancer” (Epizyme, Inc., priority 2015, dated 2019)
